Results taken from PMC8752738, “A propolis-derived small molecule ameliorates metabolic syndrome in obese mice by targeting the CREB/CRTC2 transcriptional complex” (Nature Communications, 2022).

Assays:
primary hepatocytes = test: Glucose production assay; type: cell-based, mouse
Description: Primary hepatocytes were exposed to propolis, APC or vehicle control for 1-h prior to 4-h stimulation with glucagon, and then incubated in no-glucose no-phenol-red DMEM (Sigma) supplied with 2 mM sodium pyruvate (Sigma) and 10 mM sodium lactate (Sigma) for 8-h. Glucose levels in the media were detected using a GO kit (Sigma).

mouse Per2 promoter = test: Per2-Luc reporter (CREB/CRTC2-mediated transcription of PER2); type: cell-based; conditions: preliminary research
Description: SREBP1 (m-SREBP1) and fat acid synthase (FASN) in glucagon- insulin treated cells, […]
mTORC1 activity at the same time. mTORC1 h as been reported to enh ance SREBP1c mediated lipogenesis m ainly by increasing the mat uration of SREBP1c prot eins (2015, The CREB coactivator CRTC2 controls hepatic lipid metabolism by regulating S REBP1, Nature, […]
Aug 13;524(7564):243- 6.). […]
hyperactivation caused by liver specific TSC1 deletion is insufficient to induce SREBP1c activation and de novo lipogenesis in the liver of high fat diet fed mice (Akt stimulates hepatic SREBP1c and lipogenesis through parallel mTORC1- dependent and independent pathways. Cell Metabolism . 2011. 14.1: 21- 32). Considered the requirement of TSC1 for PER2 to inhibit mTORC1 activity, the reduction of PER2 by APC may not be sufficient to induce SREBP1c activati on. Moreover, ou r dat a su ggest that APC redu ces the trans cription of SREBP1c in vivo (Figures 5b and 5g) , which would result in the decrease of whole SREBP1c protein levels and overcom e the effect on lipogenesis caused by APC activation of mTORC1. […]
Data are repres ented as mean ± SEM (n=4). *, p < 0.05; **, p< 0.01. pval ues wer e determined by one-way ANOVA followed Dunnett’s multiple comparisons test (Left).
The over-expr essed proteins FLAG- CREB and HA-CRTC2-171A were detected in the lysates of the luciferase reporter assay by immunoblotting (Right). […]

mTORC1 = test: Immunoblotting of mTORC1 signaling, mature SREBP1 and FASN in primary hepatocytes; type: cell-based, mouse; conditions: glucagon-insulin-treated primary hepatocytes
Description: Fi g u re B . Immunoblotting analysis of phosphorated or total protein amounts of S6K , mature SREBP -1and FASN in primary hepatocyt es . The cells wer epretreated with APC (10 μ M) for 2 hours , exposed to glucagon (100 nM) for 4 hours, and t hen followed by12- hour insulin (100 nM) incubationbefore collection.
(1 picture or pasted object on this page, not shown here) […]
I have a few more points that have to be addressed in the revised work.
1. In Figure B, it appeared that APC-induced p-S6K level was rather inhibited by glu/ins treatment (lane 3 vs lane 4). Is it significant?
Response: We agree wit h Reviewer1’ s comments that the western blotting band of p-S6K level of lane 4 seems weaker than that of lane3 in Figure B. However, we performed the densitometry analysis of all the results from three independent […]
independent of its effect on reducing SREBP-1c expression and the subsequent repression of lipogenesis. The authors should simply run western blot for mTORC1 signaling by utilizing the existing samples.
Response: We are grat eful for Reviewer1’s com ments. […]
to glucagon (100 nM) for 4 hours, and then followed by 12- hour insulin (100 nM) incubation before collection. […] Data are represented as mean ± SEM. *, p < 0.05; **, p < 0.01; p values were determined by two- way ANOVA followed Bonferroni’s multiple comparisons test. […]

SMILES: CC(C)=CCc1cc(C=CC(=O)O)cc(CC=C(C)C)c1O [APC, 3,5-diprenyl-4-hydroxycinnamic acid]
- glucose output and Pgc-1α, Pck1 expression in CRTC2-null primary hepatocytes (primary hepatocytes; glucagon, APC 10 μM): unable to further reduce
- glucose output induced by glucagon (primary hepatocytes; primary hepatocytes, APC 5 μM): reduced
- CREB/CRTC2-mediated transcription of PER2 (mouse Per2 promoter): reduced
- mTORC1 activity (mTORC1): increased
- protein amounts of mature SREBP1 and fat acid synthase (mTORC1): decreased
